Values of other authors in patent publication US20100173381A1, “CRYSTAL STRUCTURES OF HIV-1 PROTEASE INHIBITORS BOUND TO HIV-1 PROTEASE” (UNIVERSITY OF MASSACHUSETTS, priority 2006, published 2010).

Experiments:
drug-resistant HIV-1 = details: versus clinical protease inhibitors APV, LPV, ATV, SQV, IDV, NFV
HIV-1 protease mutants = details: M46I, T80I, P81S
[1] = tested on: the virus in cell cultures
HIV-1 protease = HIV-1 protease (Human immunodeficiency virus type 1 group M subtype B, UniProt P04585)
[2] = humans

Row | Compound | cross-resistance profile (drug-resistant HIV-1) | resistance of quadruple-viral mutant (HIV-1 protease mutants; K45R) | resistance of single-, double- or triple-viral mutants (HIV-1 protease mutants; mutants from K45R) | potency against drug-resistant proteases (drug-resistant proteases) | potency against the virus in cell cultures [1] | inhibitory properties (HIV-1 protease) | oral bioavailability [2]
1 | COC(=O)N[C@H](C(=O)NCCCC[C@@H](CO)N(CC(C)C)S(=O)(=O)c1ccc(N)cc1)C(c1ccccc1)c1ccccc1 [PL-100] | favorable cross-resistance profile | only mild resistance | did not show resistance | highly potent |  |  | 
2 | Nc1cccc(CN2C(=O)N(Cc3cccc(N)c3)[C@H](Cc3ccccc3)[C@H](O)[C@@H](O)[C@H]2Cc2ccccc2)c1 [DMP-450] |  |  |  |  | highly potent | excellent inhibitory properties | orally bioavailable
